Values joined by “and” are separate entries in the source; they are usually repeats but may differ in a detail not shown here. Equal entries are not always repeated. Inconclusive results and toxic doses are left out. Rule for the calls: active = survival T/C of 150% or more; inactive = T/C below 125% in these data.
Tested on: P388 leukemia ip, CD2F1 mice, survival T/C
Test: NCI In Vivo Anticancer Drug Screen. Data for tumor model P388 Leukemia (intraperitoneal) in CD2F1 (CDF1) mice
Details: endpoint: median survival time, higher = longer survival
In short: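 Mice carrying the transplanted tumor received test compound or vehicle. Survival was recorded in each group, and the value is the treated-group measurement divided by that of the vehicle-treated control group.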

[1] = dose: 12.5 mg/kg/injection, schedule: Q01DX005 (ip), vehicle: Klucel (hydroxypropylcellulose) (HPC)
[2] = dose: 25.0 mg/kg/injection, schedule: Q01DX005 (ip), vehicle: Klucel (hydroxypropylcellulose) (HPC)
[3] = dose: 100.0 mg/kg/injection, schedule: Q01DX009 (ip), vehicle: saline with Tween-80
[4] = dose: 100.0 mg/kg/injection, schedule: Q04DX003 (ip), vehicle: saline with Tween-80
[5] = dose: 200.0 mg/kg/injection, schedule: Q01DX009 (ip), vehicle: saline with Tween-80
[6] = dose: 200.0 mg/kg/injection, schedule: Q04DX003 (ip), vehicle: saline with Tween-80
[7] = dose: 400.0 mg/kg/injection, schedule: Q04DX003 (ip), vehicle: saline with Tween-80
[8] = dose: 25.0 mg/kg/injection, schedule: Q01DX009 (ip), vehicle: saline with Tween-80
[9] = dose: 50.0 mg/kg/injection, schedule: Q01DX009 (ip), vehicle: saline with Tween-80
[10] = dose: 25.0 mg/kg/injection, schedule: Q01DX009 (ip), vehicle: Klucel (hydroxypropylcellulose) (HPC)
[11] = dose: 50.0 mg/kg/injection, schedule: Q01DX009 (ip), vehicle: Klucel (hydroxypropylcellulose) (HPC)
[12] = dose: 100.0 mg/kg/injection, schedule: Q01DX009 (ip), vehicle: Klucel (hydroxypropylcellulose) (HPC)
[13] = dose: 200.0 mg/kg/injection, schedule: Q01DX009 (ip), vehicle: Klucel (hydroxypropylcellulose) (HPC)
[14] = dose: 12.5 mg/kg/injection, schedule: Q01DX009 (ip), vehicle: saline with Tween-80
[15] = dose: 15.0 mg/kg/injection, schedule: Q01DX005 (ip), vehicle: saline with Tween-80
[16] = dose: 30.0 mg/kg/injection, schedule: Q01DX005 (ip), vehicle: saline with Tween-80
[17] = dose: 60.0 mg/kg/injection, schedule: Q01DX005 (ip), vehicle: saline with Tween-80
[18] = dose: 120.0 mg/kg/injection, schedule: Q01DX005 (ip), vehicle: saline with Tween-80
[19] = dose: 240.0 mg/kg/injection, schedule: Q01DX005 (ip), vehicle: saline with Tween-80
[20] = dose: 100.0 mg/kg/injection, schedule: Q04DX002 (ip), vehicle: Klucel (hydroxypropylcellulose) (HPC)
[21] = dose: 200.0 mg/kg/injection, schedule: Q04DX002 (ip), vehicle: Klucel (hydroxypropylcellulose) (HPC)
[22] = dose: 400.0 mg/kg/injection, schedule: Q04DX002 (ip), vehicle: Klucel (hydroxypropylcellulose) (HPC)
[23] = dose: 50.0 mg/kg/injection, schedule: Q01DX005 (ip), vehicle: Klucel (hydroxypropylcellulose) (HPC)
[24] = dose: 100.0 mg/kg/injection, schedule: Q01DX005 (ip), vehicle: Klucel (hydroxypropylcellulose) (HPC)
[25] = dose: 200.0 mg/kg/injection, schedule: Q01DX005 (ip), vehicle: Klucel (hydroxypropylcellulose) (HPC)
[26] = dose: 60.0 mg/kg/injection, schedule: Q01DX005 (ip), vehicle: Klucel (hydroxypropylcellulose) (HPC)
[27] = dose: 120.0 mg/kg/injection, schedule: Q01DX005 (ip), vehicle: Klucel (hydroxypropylcellulose) (HPC)
[28] = dose: 240.0 mg/kg/injection, schedule: Q01DX005 (ip), vehicle: Klucel (hydroxypropylcellulose) (HPC)

Measured: T/C

CCCNC(=O)ON1C(=O)C2C3C=CC(C3)C2C1=O (stereo not drawn)
inactive: dose: 6.25 mg/kg/injection, schedule: Q01DX005 (ip), vehicle: Klucel (hydroxypropylcellulose) (HPC) 96 % of control | [1] 104 % of control | [2] 96 % of control

CC(=O)Nc1cc(F)c2c(c1F)Cc1cc(F)ccc1-2
inactive: [3] 100 % of control | [4] 100 % of control | [5] 90 % of control | [6] 100 % of control | [7] 104 % of control

CC(C)=CCC/C(C)=C\CCl
inactive: [8] 107 % of control | [9] 98 % of control | [3] 87 % of control | [5] 90 % of control

COc1ccc(-c2c(O)c3cccnc3[nH]c2=O)cc1
inactive: dose: 50.0 mg/kg/injection, schedule: Q01DX009 (ip), vehicle: saline 102 % of control | dose: 100.0 mg/kg/injection, schedule: Q01DX009 (ip), vehicle: saline 104 % of control | dose: 200.0 mg/kg/injection, schedule: Q01DX009 (ip), vehicle: saline 102 % of control

COC(CNc1nc2c(s1)c1c(O)c3c(O)c(C)c4c(c32)C(=O)C(C)(O/C=C\C(OC)C(C)C(OC(C)=O)C(C)C(O)C(C)C(O)C(C)/C=C/C=C(/C)C(=O)N1)O4)OC (stereo not drawn)
inactive: [10] 93 % of control | [11] 95 % of control | [12] 93 % of control | [13] 94 % of control

CCOC(=O)CCCCSCCCCC(=O)OCC
inactive: dose: 100.0 mg/kg/injection, schedule: Q01DX001 (ip), vehicle: saline with Tween-80 100 % of control | dose: 200.0 mg/kg/injection, schedule: Q01DX001 (ip), vehicle: saline with Tween-80 100 % of control | dose: 400.0 mg/kg/injection, schedule: Q01DX001 (ip), vehicle: saline with Tween-80 100 % of control

c1ccc(-c2ccccc2NC2=NCCO2)cc1
inactive: [14] 104 % of control | [8] 104 % of control | [9] 95 % of control

CC1CN=C(c2ccc(NC(=O)c3ccc(NC(=O)c4ccc(C5=NCC(C)N5)cc4)cc3)cc2)N1 (stereo not drawn)
inactive: dose: 6.25 mg/kg/injection, schedule: Q01DX005 (ip), vehicle: saline with Tween-80 119 % of control and 123 % of control | dose: 12.5 mg/kg/injection, schedule: Q01DX005 (ip), vehicle: saline with Tween-80 110 % of control

COc1ccc2c(=O)c(Cc3c[nH]c4ccccc34)coc2c1
inactive: dose: 7.5 mg/kg/injection, schedule: Q01DX005 (ip), vehicle: saline with Tween-80 100 % of control | [15] 93 % of control | [16] 86 % of control

COc1cc(=O)[nH]c(-c2ccccc2)c1OC
inactive: [17] 99 % of control | [18] 99 % of control | [19] 99 % of control

CC1(c2ccco2)NC(=O)NC1=O (stereo not drawn)
inactive: [4] 90 % of control | [6] 100 % of control | [7] 90 % of control

O=C1CS/C(=N/C(=O)Nc2ccc(Cl)cc2)N1
inactive: dose: 25.0 mg/kg/injection, schedule: Q04DX002 (ip), vehicle: Klucel (hydroxypropylcellulose) (HPC) 90 % of control | dose: 50.0 mg/kg/injection, schedule: Q04DX002 (ip), vehicle: Klucel (hydroxypropylcellulose) (HPC) 88 % of control | [20] 91 % of control | [21] 95 % of control | [22] 87 % of control

O=S1(=O)C=C(Br)CO1
inactive: [4] 106 % of control | [6] 106 % of control | [7] 97 % of control

O=C(O)c1c2ccccc2nc2[nH]c(=O)[nH]c(=O)c12
inactive: [23] 114 % of control and 95 % of control | dose: 50.0 mg/kg/injection, schedule: Q01DX005 (ip), vehicle: Klucel + Tween-80 117 % of control | [24] 107 % of control and 95 % of control | dose: 100.0 mg/kg/injection, schedule: Q01DX005 (ip), vehicle: Klucel + Tween-80 107 % of control | [25] 114 % of control | dose: 200.0 mg/kg/injection, schedule: Q01DX005 (ip), vehicle: Klucel + Tween-80 117 % of control

O=[N+]([O-])c1cccc(/C=C/C=C/c2ccc(Cl)c(S(=O)(=O)F)c2)c1
inactive: [3] 86 % of control | [5] 86 % of control | dose: 400.0 mg/kg/injection, schedule: Q01DX009 (ip), vehicle: saline with Tween-80 86 % of control

c1ccc([P+](c2ccccc2)(c2ccccc2)c2ccccc2)cc1
inactive: dose: 0.63 mg/kg/injection, schedule: Q04DX003 (ip), vehicle: saline 100 % of control | dose: 1.25 mg/kg/injection, schedule: Q04DX003 (ip), vehicle: saline 118 % of control | dose: 2.5 mg/kg/injection, schedule: Q04DX003 (ip), vehicle: saline 122 % of control | dose: 3.3 mg/kg/injection, schedule: Q04DX003 (ip), vehicle: saline 122 % of control

CCOC(=O)c1ccc(NC(=O)Nc2ccc(Nc3ccccc3)cc2)cc1
inactive: [26] 95 % of control | [27] 92 % of control | [28] 88 % of control

COC(=O)C1=C(C(=O)OC)P2(C)(C)OC(c3ccccc3)CN2C1(c1ccccc1)c1ccccc1 (stereo not drawn)
inactive: [23] 98 % of control | [24] 100 % of control | [25] 91 % of control

CC1(C)CC(O)(C(Cl)c2ccccc2)C(=O)c2ccccc21 (stereo not drawn)
inactive: [10] 96 % of control | [11] 93 % of control | [12] 93 % of control | [13] 94 % of control | dose: 400.0 mg/kg/injection, schedule: Q01DX009 (ip), vehicle: Klucel (hydroxypropylcellulose) (HPC) 86 % of control

C=C1C(=O)OC2C=C(CCC(C)=O)C(C)C(OC(C)=O)CC12 (stereo not drawn)
inactive: [10] 100 % of control | [11] 102 % of control | [12] 94 % of control | [13] 94 % of control

CCC(/C=C/c1ccccc1)=N\Nc1ccc(C)cc1
inactive: [17] 107 % of control | [18] 117 % of control | [19] 114 % of control

O=C(NCCc1ccccn1)c1cc(Cl)ccc1O
inactive: [20] 95 % of control | [21] 103 % of control | [22] 100 % of control

COc1ccc(/C=N/NC(=O)c2ccncc2)cc1F
inactive: [15] 100 % of control | [16] 99 % of control | [17] 101 % of control and 88 % of control | [18] 88 % of control | [19] 95 % of control

NC(=O)Nc1cc2[nH]c(=O)oc2cc1Cl
inactive: [1] 100 % of control | [2] 102 % of control | [23] 88 % of control | [24] 92 % of control

CCOc1c(Cl)cc(Cl)cc1C(c1ccccc1S(=O)(=O)O)c1cc(Cl)cc(Cl)c1OCC
inactive: dose: 6.25 mg/kg/injection, schedule: Q01DX009 (ip), vehicle: saline with Tween-80 100 % of control | [14] 91 % of control

CC(Oc1ccccc1)C(=O)O (stereo not drawn)
inactive: [9] 98 % of control | [3] 97 % of control

CC(=O)NNc1ccc(Cl)cc1[N+](=O)[O-]
inactive: [11] 96 % of control | [12] 101 % of control

CCOC(=O)/C(Cl)=C(\C)Nc1nc2c(ccc3ccccc32)s1
inactive: [17] 98 % of control | [18] 90 % of control

CCC(C)(C)C(=O)O
inactive: [3] 100 % of control | [5] 100 % of control

COc1cc(OC)cc(C2OC3=C(Nc4ccc([N+](=O)[O-])cc4N3)C2=O)c1 (stereo not drawn)
inactive: [26] 90 % of control | [27] 90 % of control | [28] 90 % of control

CC[N+](C)(CC)CCOc1ccc(OCC[N+](C)(CC)CC)c2c1C(=O)c1ccccc1C2=O
inactive: dose: 0.78 mg/kg/injection, schedule: Q01DX005 (ip), vehicle: saline 98 % of control | dose: 1.56 mg/kg/injection, schedule: Q01DX005 (ip), vehicle: saline 109 % of control | dose: 3.12 mg/kg/injection, schedule: Q01DX005 (ip), vehicle: saline 100 % of control

Reference: PubChem BioAssay AID330 (DTP/NCI, 2004)
